Assay results published in ChEMBL document CHEMBL5500324, “The potential of marine-derived piperazine alkaloids: Sources, structures and bioactivities” (Eur J Med Chem, 2024).
pIC50: −log10 of the molar value. ≈ marks a conversion by molar mass, not a printed value. One block for each compound: values may come before it.

What was measured:
[1] = system: MCF7; assay: Cytotoxicity against human MCF7 cells assessed as reduction in cell viability; type: functional, cell-based
[2] = system: MKN-1; assay: Cytotoxicity against human MKN-1 cells assessed as reduction in cell viability; type: functional, cell-based
[3] = system: U-937; assay: Cytotoxicity against human U-937 cells assessed as inhibition of cell growth; type: functional, cell-based
[4] = system: HL-60; assay: Cytotoxicity against human HL-60 cells assessed as reduction in cell growth; type: functional, cell-based
[5] = system: T47D; assay: Antiproliferative activity against human T47D cells incubated for 48 hrs by MTT assay; type: functional, cell-based
[6] = system: P388; assay: Cytotoxicity against mouse P388 cells assessed as cell growth inhibition; type: functional; settings: read-out: ED50 (the source's name)
[7] = system: SF-268; assay: Cytotoxicity against human SF-268 cells assessed as reduction in cell growth incubated for 72 hrs by SRB assay; type: functional, cell-based; settings: SF-268, 72 h
[8] = system: HEK293; assay: Cytotoxicity against HEK293 cells assessed as cell growth inhibition; type: functional, cell-based; settings: Homo sapiens
[9] = system: NCI-H460; assay: Cytotoxicity against human NCI-H460 cells assessed as reduction in cell growth incubated for 72 hrs by SRB assay; type: functional, cell-based; settings: NCI-H460, 72 h
[10] = system: HepG2; assay: Cytotoxicity against human HepG2 cells assessed as reduction in cell growth incubated for 72 hrs by SRB assay; type: functional, cell-based; settings: HepG2, 72 h
[11] = system: SF-268; assay: Cytotoxicity against human SF-268 cells assessed as reduction in cell growth incubated for 48 hrs by SRB assay; type: functional, cell-based; settings: SF-268, 48 h
[12] = system: NCI-H460; assay: Cytotoxicity against human NCI-H460 cells assessed as reduction in cell growth incubated for 48 hrs by SRB assay; type: functional, cell-based; settings: NCI-H460, 48 h
[13] = system: MCF7; assay: Cytotoxicity against human MCF7 cells assessed as reduction in cell growth incubated for 72 hrs by SRB assay; type: functional, cell-based; settings: MCF7, 72 h
[14] = system: HepG2; assay: Cytotoxicity against human HepG2 cells assessed as reduction in cell growth incubated for 48 hrs by SRB assay; type: functional, cell-based; settings: HepG2, 48 h
[15] = system: MCF7; assay: Cytotoxicity against human MCF7 cells assessed as reduction in cell growth incubated for 48 hrs by SRB assay; type: functional, cell-based; settings: MCF7, 48 h
[16] = system: HCT-116; assay: Cytotoxicity against human HCT-116 cells assessed as reduction in cell viability incubated for 24 hrs by MTT assay; type: functional, cell-based; settings: HCT-116, 24 h
[17] = system: RKO; assay: Cytotoxicity against human RKO cells assessed as inhibition of cell growth measured after 48 hrs by MTT assay; type: functional, cell-based
[18] = system: HepG2; assay: Cytotoxicity against human HepG2 cells; type: functional, cell-based
[19] = system: HCT-116; assay: Cytotoxicity against human HCT-116 cells; type: functional, cell-based
[20] = system: HeLa; assay: Cytotoxicity against human HeLa cells; type: functional, cell-based
[21] = system: HEp-2; assay: Cytotoxicity against human HEp-2 cells assessed as reduction in cell growth; type: functional, cell-based
[22] = system: MCF7; assay: Cytotoxicity against human MCF7 cells; type: functional, cell-based
[23] = system: NCI-H929; assay: Cytotoxicity against human NCI-H929 cells; type: functional, cell-based
[24] = system: A549; assay: Cytotoxicity against human A549 cells; type: functional, cell-based
[25] = system: P388; assay: Cytotoxicity against mouse P388 cells assessed as inhibition of cell growth; type: functional, cell-based
[26] = system: SK-MEL-28; assay: Cytotoxicity against human SK-MEL-28 cells assessed as inhibition of cell growth; type: functional, cell-based
[27] = system: ECV-304; assay: Cytotoxicity against human ECV-304 cells; type: functional, cell-based
[28] = system: A549; assay: Cytotoxicity against human A549 cells assessed as inhibition of cell growth; type: functional, cell-based
[29] = system: CAL-27; assay: Cytotoxicity against human CAL-27 cells; type: functional, cell-based
[30] = system: HT-29; assay: Cytotoxicity against human HT-29 cells assessed as inhibition of cell growth; type: functional, cell-based
[31] = system: HCT-116; assay: Antiproliferative activity against human HCT-116 cells assessed as reduction in cell viability incubated for 24 hrs by MTT assay; type: functional, cell-based; settings: HCT-116, 24 h
[32] = system: QG-56; assay: Cytotoxicity against human QG-56 cells assessed as reduction in cell growth incubated for 24 hrs by MTT assay; type: functional, cell-based; settings: QG-56, 24 h
[33] = system: BC; assay: Cytotoxicity against human BC cells assessed as inhibition of cell growth; type: functional, cell-based
[34] = system: KB; assay: Cytotoxicity against human KB cells assessed as inhibition of cell growth; type: functional, cell-based
[35] = system: DU-145; assay: Cytotoxicity against human DU-145 cells assessed as cell growth inhibition measured after 48 hrs by MTT assay; type: functional, cell-based; settings: DU-145, 48 h
[36] = Cytotoxicity against human Huh7.5 cells assessed as reduction in cell viability incubated for 72 hrs by CCK-8 assay; type: toxicity, cell-based, Huh-7.5
[37] = system: L1210; assay: Cytotoxicity against mouse L1210 cells assessed as reduction in cell growth; type: functional; settings: read-out: ED50 (the source's name)
[38] = system: DU-145; assay: Growth inhibition of human DU-145 cells; type: functional
[39] = system: FaDu; assay: Growth inhibition of human FaDu cells; type: functional
[40] = system: MCF7; assay: Growth inhibition of human MCF7 cells; type: functional
[41] = system: BXPC-3; assay: Growth inhibition of human BXPC-3 cells assessed as reduction in cell viability measured after 3 days by CCK-8 assay; type: functional; settings: BXPC-3, 72 h, time 3 day
[42] = system: SW-1736; assay: Growth inhibition of human SW-1736 cells; type: functional
[43] = system: SK-N-SH; assay: Growth inhibition of human SK-N-SH cells; type: functional
[44] = system: P388; assay: Anticancer activity against mouse P388 cells assessed as inhibition of cell growth; type: functional; settings: read-out: ED50 (the source's name)
[45] = system: SF-268; assay: Growth inhibition of human SF-268 cells; type: functional
[46] = system: KM-20L2; assay: Growth inhibition of human KM-20L2 cells; type: functional
[47] = system: NCI-H460; assay: Growth inhibition of human NCI-H460 cells; type: functional
[48] = system: PC-3; assay: Cytotoxicity against human PC-3 cells assessed as reduction in cell viability; type: functional, cell-based
[49] = system: U-937; assay: Cytotoxicity against human U-937 cells assessed as reduction in cell viability; type: functional, cell-based
[50] = Cytotoxicity against mouse FM3A tsFT210 cells assessed as inhibition of cell growth; type: functional, cell-based
[51] = system: A549; assay: Cytotoxicity against human A549 cells assessed as reduction in cell viability by MTT assay; type: functional, cell-based
[52] = system: HGC-27; assay: Cytotoxicity against human HGC-27 cells assessed as reduction in cell viability by MTT assay; type: functional, cell-based
[53] = system: UMUC3; assay: Cytotoxicity against human UMUC3 cells assessed as reduction in cell viability by MTT assay; type: functional, cell-based

Structure (SMILES): CO[C@H]1c2c([nH]c3ccccc23)[C@H](C=C(C)C)N2C(=O)[C@@H]3CCCN3C(=O)[C@@]12O
pIC50 [1]: 4.97 | pIC50 [2]: 4.68

IC50 [5]: 11.6 µg/mL (≈ 30.2 µM)
Structure (SMILES): CC(C)=CCC/C(C)=C/COc1ccc(/C=C2/NC(=O)[C@H](C)N(O)C2=O)cc1
IC50 [3]: 11.6 µg/mL (≈ 30.2 µM) | IC50 [4]: 11.6 µg/mL (≈ 30.2 µM)

Structure (SMILES): CS[C@H]1C(=O)N2[C@H]3Nc4ccccc4[C@@]3(c3c[nH]c4ccccc34)C[C@]2(SC)C(=O)N1C
EC50 [6]: 20 µg/mL (≈ 43 µM)

Structure (SMILES): CC(=O)O[C@H]1C=CC=C2C[C@]34SS[C@](CO)(C(=O)N3[C@@H]21)N(C)C4=O
pIC50 [7]: 6.60 | pIC50 [8]: 5.35 | pIC50 [9]: 6.31 | pIC50 [10]: 6.49 | pIC50 [11]: 6.60 | pIC50 [12]: 6.49 | pIC50 [13]: 6.66 | pIC50 [14]: 6.31 | pIC50 [15]: 6.66 | pIC50 [16]: 6.05 | pIC50 [17]: 5.91

Structure (SMILES): CC(C)/C=C1\NC(=O)[C@H](CCC(N)=O)n2c1nc1ccccc1c2=O [AURANTIOMIDE C]
IC50 [18]: 23.9 µg/mL (≈ 70.3 µM) | IC50 [19]: 9.51 µg/mL (≈ 27.9 µM) | IC50 [20]: 18.5 µg/mL (≈ 54.3 µM) | IC50 [21]: 37.6 µg/mL (≈ 111 µM) | IC50 [22]: 20.5 µg/mL (≈ 60.2 µM)

Structure (SMILES): COc1cc2c(cc1O)CCN[C@@]21CS[C@@H]2c3c(OC(C)=O)c(C)c4c(c3[C@H](COC1=O)N1[C@@H]2[C@H]2c3c(cc(C)c(OC)c3O)C[C@@H]([C@@H]1O)N2C)OCO4
pIC50 [23]: 8.96 | pIC50 [24]: 8.82 | pIC50 [25]: 6.70 | IC50 [26]: 0.005 µg/mL (≈ 0.00656 µM) | pIC50 [27]: 8.80 | IC50 [28]: 0.0002 µg/mL (≈ 0.000263 µM) | pIC50 [29]: 9.05 | IC50 [30]: 0.0005 µg/mL (≈ 0.000656 µM)

Structure (SMILES): COc1cc2c(cc1O)CCNC21CS[C@@H]2c3c(OC(C)=O)c(C)c4c(c3[C@H](COC1=O)N1[C@@H]2[C@H]2c3c(cc(C)c(OC)c3O)C[C@@H]([C@@H]1C#N)N2C)OCO4 (stereo partly drawn)
pIC50 [31]: 9.40 | pIC50 [32]: 8.74 | pIC50 [33]: 8.60 | pIC50 [34]: 10.47 | pIC50 [35]: 9.18

Structure (SMILES): CO[C@@H]1CC(=O)[C@@H]2C[C@@]34SS[C@]5(C[C@H]6C(=O)CC(=O)[C@H](O)[C@H]6N5C3=O)C(=O)N4[C@@H]2[C@H]1O
IC50 at 72 h [36]: 9520 nM

Structure (SMILES): CN1C[C@H](c2c[nH]c3cc(Br)ccc23)NC[C@H]1c1c[nH]c2cc(Br)ccc12
EC50 [37]: 10 µg/mL (≈ 20.5 µM)

Structure (SMILES): CN1C(=O)N[C@H]2[C@@H]3NC(=O)c4ccc(Br)n4[C@@H]3C[C@]21O [AGELASTATIN A]
GI50 [38]: 0.056 µg/mL (≈ 0.164 µM) | GI50 [39]: 0.24 µg/mL (≈ 0.703 µM) | GI50 [40]: 0.033 µg/mL (≈ 0.0967 µM) | GI50 [41]: 0.089 µg/mL (≈ 0.261 µM) | GI50 [42]: 0.12 µg/mL (≈ 0.352 µM) | GI50 [43]: 0.042 µg/mL (≈ 0.123 µM) | EC50 [44]: 0.052 µg/mL (≈ 0.152 µM) | GI50 [45]: 0.038 µg/mL (≈ 0.111 µM) | GI50 [46]: 0.036 µg/mL (≈ 0.106 µM) | GI50 [47]: 0.036 µg/mL (≈ 0.106 µM)

Structure (SMILES): CS[C@]1(CO)C(=O)N2C3C(=CC=CC3O)C[C@@]2(SC)C(=O)N1C (stereo partly drawn)
pIC50 [48]: 4.80 | pIC50 [49]: 6.28 | IC50 [50]: 89.8 µg/mL (≈ 252 µM)

Structure (SMILES): CC(C)C[C@H]1NC(=O)[C@H](CCC(N)=O)n2c1nc1ccccc1c2=O
pIC50 [51]: 5.22 | pIC50 [52]: 5.21 | pIC50 [53]: 5.14
